Values of other authors in patent US20110008431A1, “THERAPEUTIC TABLET FOR POSTHERPETIC NEURALGIA AND METHOD OF TREATING POSTHERPETIC NEURALGIA” (TOYO BOSEKI KABUSHIKI KAISHA, priority 2007, published 2011).

Tested on: patient with neuropathic pain
Conditions: devazepide in combination with an opioid analgesic agent such as morphine, Patent Document 1

CN1C(=O)[C@@H](NC(=O)c2cc3ccccc3[nH]2)N=C(c2ccccc2)c2ccccc21 [devazepide]
subjects who attained pain relief: 10 of 41
